Patent US12600714B2, “Substituted pyrazinecarboxamide compounds for treating diseases related to EGFR mutation” (WIGEN BIOMEDICINE TECHNOLOGY (SHANGHAI) CO., LTD., priority 2020, dated 2026)

Legend:
A431 (EGFR WT) cells = test: Antiproliferative activity against A431 (EGFR WT) cells, Cell Titer Glow; type: cell-based; conditions: Homo sapiens, A-431, 72 h; three days after addition of compounds; read-out: Antiproliferative activity A431 wild-type (WT) IC50
Method: (§1) Antiproliferative Activity of the Compounds Disclosed Herein Against Ba/F3 (EGFR^del19/T790M/C797S) Triple-Mutant Cells and A431 (EGFR WT) Cells
(§2) • 3000 Ba/F3 cells carrying EGFR (del19/T790M/C797S) or 2000 A431 cells were seeded in a 384-well plate. After one day, serially diluted compounds were added (up to 500 nM for Ba/F3 cells and up to 10 μM for A431 cells). Three days after the addition of the compounds, Cell Titer Glow was added to evaluate cell growth and the percentage cell growth inhibition by the compounds and the IC50 values were calculated.

[1] = target: Ba/F3 (EGFR^del19/T790M/C797S) triple-mutant cells (Homo sapiens, UniProt P00533, T790M/C797S, cells depend on it, form not given); test: Antiproliferative activity against Ba/F3 (EGFR del19/T790M/C797S) triple-mutant cells, Cell Titer Glow; type: cell-based; conditions: three days after addition of compounds; read-out: Antiproliferative activity BaF3(EGFR^del19/T790M/C797S) IC50
Ba/F3 (EGFR^del19/T790M/C797S) triple-mutant cells, sequence (P00533 with tags, fused parts or gaps DEL746-750/T790M/C797S, form open): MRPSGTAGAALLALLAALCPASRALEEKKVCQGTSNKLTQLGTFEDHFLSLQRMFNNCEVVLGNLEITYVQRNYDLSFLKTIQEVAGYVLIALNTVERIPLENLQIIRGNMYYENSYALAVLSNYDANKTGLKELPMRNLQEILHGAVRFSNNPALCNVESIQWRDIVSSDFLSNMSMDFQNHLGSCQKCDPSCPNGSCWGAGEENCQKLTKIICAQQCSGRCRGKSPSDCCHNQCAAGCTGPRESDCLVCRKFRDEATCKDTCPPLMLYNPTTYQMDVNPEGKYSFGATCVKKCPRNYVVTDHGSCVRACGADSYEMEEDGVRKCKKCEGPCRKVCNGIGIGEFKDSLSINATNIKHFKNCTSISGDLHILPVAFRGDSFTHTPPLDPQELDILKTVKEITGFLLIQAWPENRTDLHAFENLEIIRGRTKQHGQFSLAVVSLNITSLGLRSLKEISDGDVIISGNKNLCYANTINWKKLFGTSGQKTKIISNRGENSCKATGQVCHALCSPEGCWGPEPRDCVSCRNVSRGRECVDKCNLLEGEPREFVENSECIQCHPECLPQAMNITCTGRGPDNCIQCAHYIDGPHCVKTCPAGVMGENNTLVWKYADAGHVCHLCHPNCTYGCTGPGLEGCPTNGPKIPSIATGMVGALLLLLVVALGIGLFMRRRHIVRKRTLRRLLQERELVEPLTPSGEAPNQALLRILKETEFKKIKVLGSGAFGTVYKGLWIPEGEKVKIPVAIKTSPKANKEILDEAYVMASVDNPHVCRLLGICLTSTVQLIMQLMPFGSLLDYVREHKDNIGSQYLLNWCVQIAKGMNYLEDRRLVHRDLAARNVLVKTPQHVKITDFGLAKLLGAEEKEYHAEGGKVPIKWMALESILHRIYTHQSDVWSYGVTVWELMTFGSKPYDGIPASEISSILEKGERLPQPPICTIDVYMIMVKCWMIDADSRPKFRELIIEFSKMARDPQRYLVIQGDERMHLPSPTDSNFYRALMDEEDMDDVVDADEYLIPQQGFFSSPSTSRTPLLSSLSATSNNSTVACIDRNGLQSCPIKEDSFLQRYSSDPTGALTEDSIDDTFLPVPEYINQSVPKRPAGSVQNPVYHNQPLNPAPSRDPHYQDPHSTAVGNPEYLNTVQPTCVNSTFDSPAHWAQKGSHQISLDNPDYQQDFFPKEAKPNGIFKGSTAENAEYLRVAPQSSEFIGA
Method: as §1, §2

EGFR (del19/T790M/C797S) = test: HTRF inhibitory activity assay against EGFR (del19/T790M/C797S) enzyme; type: biochemical
How it was run: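 Wild-type or mutant EGFR preincubated with serially diluted compound 10 min at 28 °C, then reacted 40 min at room temperature with biotinylated TK substrate and ATP. Phosphorylation detected by HTRF (Eu-cryptate anti-TK antibody, streptavidin-XL665, 60 min), 665/615 nm ratio; % inhibition and IC50 vs control.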

Row | Structure (SMILES) | IC50 (A431 (EGFR WT) cells) [nM] | GI50 [1] [nM] | EGFR (del19/T790M/C797S) inhibition (%) (0.3 nM compound) (EGFR (del19/T790M/C797S))
1 | CN1CCN(C2CCN(c3ccc(Nc4nc(N[C@@H]5CCC[C@H](O)C5)c(-c5ccccc5)nc4C(N)=O)cc3)CC2)CC1 [compound 141] | 230 | 27 | 
2 | CCc1cc(Nc2nc(NC3CCOCC3)c(-c3ccnc4[nH]ccc34)nc2C(N)=O)ccc1N1CCC(N2CCN(C)CC2)CC1 [compound 516] | 350 | 42 | 
3 | CCc1cc(Nc2nc(NC3CCOCC3)c(-c3ccncc3)nc2C(N)=O)ccc1N1CCC(N2CCN(C)CC2)CC1 [compound 161] | 1200 | 54 | 
4 | CC(C)c1cc(Nc2nc(NC3CCOCC3)c(-c3cc[nH]n3)nc2C(N)=O)ccc1N1CCC(N2CCN(C)CC2)CC1 [compound 420] | 3700 | 32 | 
5 | Cc1cnccc1-c1nc(C(N)=O)c(Nc2ccc(N3CCC(N4CCN(C)CC4)CC3)cc2)nc1NC1CCOCC1 [compound 74] | 2100 | > 100 | 
6 | CN1CCN(C2CCN(c3ccc(Nc4nc(NC5CCC(O)C5)c(-c5ccccc5)nc4C(N)=O)cc3)CC2)CC1 (stereo not drawn) [compound 135, 5-((3-hydroxycyclopentyl)amino)-3-((4-(4-(4-methylpiperazin-1-yl)piperidin-1-yl)phenyl)amino)-6-phenylpyrazine-2-carboxamide] | 340 | 40 | 
7 | COc1cc(Nc2nc(NC3CC4(COC4)C3)c(-c3cc[nH]n3)nc2C(N)=O)ccc1N1CCC(N2CCN(C)CC2)CC1 [compound 504] | 330 | 98 | 
8 | Cc1cc(Nc2nc(NC3CCOCC3)c(-c3ccccn3)nc2C(N)=O)ccc1N1CCC(N2CCN(C)CC2)CC1 [compound 213] | > 10000 | 226 | 
9 | CCc1cc(Nc2nc(NC3CCOCC3)c(-c3cccc4[nH]ccc34)nc2C(N)=O)ccc1N1CCC(N2CCN(C)CC2)CC1 [compound 515] | 520 | 42 | 
10 | CN1CCN(c2ccc(Nc3nc(NC4CCOCC4)c(-c4cc[nH]n4)nc3C(N)=O)cc2)CC1 [compound 174] | 1000 | 51 | 
11 | CN1CCN(C2CCN(c3ccc(Nc4nc(NC5CCOCC5)c(-c5cncc6[nH]ccc56)nc4C(N)=O)cc3)CC2)CC1 [compound 538] | 290 | 35 | 
12 | CN1CCN(C2CCN(c3ccc(Nc4nc(O[C@@H]5CCN(CCO)C5)c(-c5ccccc5)nc4C(N)=O)cc3)CC2)CC1 [compound 131] | > 10000 | > 100 | 
13 | CN1CCN(C2CCN(c3ccc(Nc4nc(NC5CC6(COC6)C5)c(-c5cc[nH]n5)nc4C(N)=O)cc3F)CC2)CC1 [compound 628] |  |  | ++ (++ indicates an inhibition from 20% to 50%)
14 | CN1CC=C(c2nc(C(N)=O)c(Nc3ccc(N4CCC(N5CCN(C)CC5)CC4)cc3)nc2NC2CCOCC2)CC1 [compound 102] |  |  | + (+ indicates an inhibition less than or equal to 20%)
15 | CN1CCN(C2CCN(c3ccc(Nc4nc(NC5CCOCC5)c(-c5ccccc5N)nc4C(N)=O)cc3)CC2)CC1 [compound 98] |  |  | + (+ indicates an inhibition less than or equal to 20%)
16 | CN1CCN(C2CCN(c3ccc(Nc4nc(N[C@@H]5CCOC5)c(-c5ccncc5)nc4C(N)=O)cc3F)CC2)CC1 [compound 643] |  |  | +++ (+++ indicates an inhibition greater than 50%.)
17 | CN1CCN(C2CCN(c3ccc(Nc4nc(NC5CCOCC56CC6)c(-c5ccccn5)nc4C(N)=O)cc3)CC2)CC1 (stereo not drawn) [compound 255] |  |  | ++ (++ indicates an inhibition from 20% to 50%)
18 | CN1CCN(C2CCN(c3ccc(Nc4nc(NC5CCOCC5)c(-c5ccnc6[nH]ccc56)nc4C(N)=O)cc3F)CC2)CC1 [compound 520] |  |  | +++ (+++ indicates an inhibition greater than 50%.)
19 | COc1ccc(-c2nc(C(N)=O)c(Nc3ccc(N4CCC(N5CCN(C)CC5)CC4)cc3)nc2NC2CCOCC2)cc1 [compound 45] |  |  | + (+ indicates an inhibition less than or equal to 20%)
20 | CN1CCN(C2CCN(c3ccc(Nc4nc(N[C@H]5CCOC5)c(-c5ccncc5)nc4C(N)=O)cc3)CC2)CC1 [compound 644] |  |  | +++ (+++ indicates an inhibition greater than 50%.)

Row | Structure (SMILES) | IC50 (A431 (EGFR WT) cells) [nM] | GI50 [1] [nM] | EGFR (del19/T790M/C797S) inhibition (%) (0.3 nM compound) (EGFR (del19/T790M/C797S))
21 | CC(C)Nc1nc(Nc2ccc(N3CCC(N4CCN(C)CC4)CC3)cc2)c(C(N)=O)nc1-c1ccnc2[nH]ccc12 [compound 609] |  |  | +++ (+++ indicates an inhibition greater than 50%.)
22 | CN1CCN(C2CCN(c3ccc(Nc4nc(NC5CCOCC5)c(-c5ccn(C)n5)nc4C(N)=O)cc3)CC2)CC1 [compound 49] |  |  | + (+ indicates an inhibition less than or equal to 20%)
23 | CN1CCN(C2CCN(c3ccc(Nc4nc(NC5CCOCC5)c(-c5cc[nH]n5)nc4C(N)=O)cc3F)CC2)CC1 [compound 619] |  |  | ++ (++ indicates an inhibition from 20% to 50%)
24 | CN1CCN(C2CCN(c3ccc(Nc4nc(NC5CCOCC5)c(-c5ccccc5NS(C)(=O)=O)nc4C(N)=O)cc3)CC2)CC1 [compound 107] |  |  | + (+ indicates an inhibition less than or equal to 20%)
25 | CC(C)Nc1nc(Nc2ccc(N3CCC(N4CCN(C)CC4)CC3)c(F)c2)c(C(N)=O)nc1-c1cc[nH]n1 [compound 622] |  |  | +++ (+++ indicates an inhibition greater than 50%.)
26 | CN1CCN(C2CCN(c3ccc(Nc4nc(N[C@@H]5CCC[C@H]5O)c(-c5ccccc5)nc4C(N)=O)cc3)CC2)CC1 [compound 134] |  |  | ++ (++ indicates an inhibition from 20% to 50%)
27 | CC(C)Nc1nc(Nc2ccc(N3CCC(N4CCN(C)CC4)CC3)c(F)c2)c(C(N)=O)nc1-c1cccc2[nH]ccc12 [compound 530] |  |  | +++ (+++ indicates an inhibition greater than 50%.)
28 | CN1CCN(C2CCN(c3ccc(Nc4nc(NC5CCOCC5)c(C5=CCNC5)nc4C(N)=O)cc3)CC2)CC1 [compound 68] |  |  | + (+ indicates an inhibition less than or equal to 20%)
29 | CN1CCN(C2CCN(c3ccc(Nc4nc(NC5CCOCC5)c(-c5ccncc5F)nc4C(N)=O)cc3)CC2)CC1 [compound 103] |  |  | ++ (++ indicates an inhibition from 20% to 50%)
30 | CN1CCN(C2CCN(c3ccc(Nc4nc(N[C@H]5C[C@H](O)C5)c(-c5cc[nH]n5)nc4C(N)=O)cc3F)CC2)CC1 [compound 621] |  |  | +++ (+++ indicates an inhibition greater than 50%.)
31 | CN1CCN(C2CCN(c3ccc(Nc4nc(NC5CCOCC5)c(N5CCCCC5)nc4C(N)=O)cc3)CC2)CC1 [compound 116, 3-((4-(4-(4-methylpiperazin-1-yl)piperidin-1-yl)phenyl)amino)-6-(piperidin-1-yl)-5-((tetrahydro-2H-pyran-4-yl)amino)pyrazine-2-carboxamide] |  |  | + (+ indicates an inhibition less than or equal to 20%)
32 | CN1CCN(C2CCN(c3ccc(Nc4nc(NC5CCOCC5)c(-c5ccccc5C(F)F)nc4C(N)=O)cc3)CC2)CC1 [compound 82] |  |  | + (+ indicates an inhibition less than or equal to 20%)
33 | CN1CCN(C2CCN(c3ccc(Nc4nc(NC5CCOCC5)c(-c5ccc(F)cc5)nc4C(N)=O)cc3)CC2)CC1 [compound 64] |  |  | + (+ indicates an inhibition less than or equal to 20%)
34 | CN1CCN(C2CCN(c3ccc(Nc4nc(NC5CC5)c(-c5cc[nH]n5)nc4C(N)=O)cc3F)CC2)CC1 [compound 626] |  |  | +++ (+++ indicates an inhibition greater than 50%.)
35 | CN1CCN(C2CCN(c3ccc(Nc4nc(O[C@@H]5CCOC5)c(-c5ccccc5)nc4C(N)=O)cc3)CC2)CC1 [compound 16] |  |  | + (+ indicates an inhibition less than or equal to 20%)
36 | CN1CCN(C2CCN(c3ccc(Nc4nc(N[C@H]5C[C@@H](O)C5)c(-c5cc[nH]n5)nc4C(N)=O)cc3F)CC2)CC1 [compound 620] |  |  | ++ (++ indicates an inhibition from 20% to 50%)
37 | CN1CCN(C2CCN(c3ccc(Nc4nc(NC5CC5)c(-c5ccnc6[nH]ccc56)nc4C(N)=O)cc3)CC2)CC1 [compound 610] |  |  | +++ (+++ indicates an inhibition greater than 50%.)
38 | CN1CCN(C2CCN(c3ccc(Nc4nc(N[C@H]5C[C@H](O)C5)c(-c5cc[nH]n5)nc4C(N)=O)cc3)CC2)CC1 [compound 615] |  |  | +++ (+++ indicates an inhibition greater than 50%.)
39 | CN1CCN(C2CCN(c3ccc(Nc4nc(NC5CCOCC5)c(-c5ccsc5)nc4C(N)=O)cc3)CC2)CC1 [compound 93] |  |  | ++ (++ indicates an inhibition from 20% to 50%)
